Patent US10342796B2, “Acrylanilide derivative, preparation method, and applications thereof in pharmacy” (Ancureall Pharmaceutical (Shanghai) Co., Ltd., priority 2015, dated 2019)
Read-outs that look alike come from different tables or passages of the source.

Columns and labels:
Test in all cases: Growth inhibition GI50 in vitro (CCK8/MTT, 72 h)
Assay type in all cases: cell-based, human
[1] = tested on: H460 (EGFR wt, Kras G61H); settings: EGFR wild type cell line, range of GI50, read-out: GI50 H460
Text: (§1) EGFR wild type cell lines: human epidermal cancer cell line A431 (EGFR WT, amplification and high expression, from Shanghai Cell Bank of Chinese Academy of Sciences and ATCC), NSCLC cell lines NCI-H460 (EGFR WT, Kras G61H and PI3KCA E545K mutants, ATCC) and NCI-H1299 (EGFR WT, ATCC), melanoma cell line A375 (EGFR WT and BRAF V600E mutant, from Shanghai Cell Bank of Chinese Academy of Sciences, ATCC), human lung cancer cell line NCI-H292 (EGFR WT, from human lung mucoepidermoid carcinoma/lymphatic metastasis, purchased from Shanghai Cell Bank of Chinese Academy of Sciences) were cultured with 1×RPMI1640 complete medium which was supplement with 10% FBS. NSCLC cell line A549 (EGFR WT and Kras G12S mutant, from Shanghai Cell Bank of Chinese Academy of Sciences) was cultured with 1×Ham'S F12K complete medium which was supplement with 10% FBS, 1% double-antibiotics and 2 mM glutamine.
(§2) The suspension cells were collected by centrifugation. The supernatant was discard and the cell pellet was resuspended and counted. Different cell concentrations (5˜10×10^4 cells/mL) were prepared according to the growth cycle of each cell line and then seeded on a 96-well plate (Corning), 100 μL/well. The cells were incubated over night at 37° C., 5% CO2. The compounds were added to the cells on the second day with 2 wells in parallel. The final concentration of organic solvent shall not exceed 1%. The cells were continually incubated for 72 h, and then subjected to MTT assay.
(§3) The present compounds and the reference compounds were dissolved with DMSO (Sigma), respectively. […] The storage concentration of compounds was 10 mM and kept at −20° C. They were diluted by 2 times or 10 times with serial dilution before using.
(§4) Dojindo CCK8 reagent kit was used as MTT assay. […] FC meter was used as microplate reader.
(§5) Adherent cell culture medium was discard and immediately replaced with fresh prepared medium which contains 10% CCK8 reagent (100 μL/well). For the suspension cells, CCK8 was directly added to 10% of the final concentration. The cells were continually incubated for 1˜4 h. When the color of control wells turned to dark yellow, the absorption value was measured at OD450 nm. The cell growth rate was calculated according to the following formula: cell growth rate (%)=100*(T−T0)/(C−T0), T=optical density of drug treatment cell well—optical density of blank control well; T0=optical density of cell well before drug treatment—optical density of blank control well; C=optical density of cell well of solvent control group—optical density of blank control well. […] The experiment was independently repeated 1˜3 times, and subject to biological statistical analysis.

[2] = tested on: A431 (EGFR WT, amplification and high expression); settings: EGFR wild type cell line, range of GI50, read-out: GI50 A431
Text: as §1, §2, §3, §4, §5

A549 (EGFR WT) = settings: EGFR wild type cell line, range of GI50, read-out: GI50 A549
Text: as §1, §2, §3, §4, §5

[3] = tested on: H1299 (EGFR wt, Nras Q61K); settings: EGFR wild type cell line, range of GI50, read-out: GI50 H1299
Text: as §1, §2, §3, §4, §5

[4] = tested on: PC-9ER (EGFR delE746-A750/T790M); settings: EGFR mutant cell line, range of GI50, read-out: GI50 PC9ER
Experimental: (§6) PC-9ER is an acquired Erlotinib resistance cell line of PC-9 cells developed by the investor. […] The four cell lines above were cultured with 1×RPMI1640 complete medium (supplement with 10% FBS). Human colon cancer cell line SW48 (EGFR G719S positive, ATCC). was cultured with L15 complete medium (10% FB S).
as §2, §3, §4, §5

H1975 (EGFR L858R/T790M) = settings: EGFR mutant cell line, range of GI50, read-out: GI50 H1975
Experimental: as §6, §2, §3, §4, §5

PC-9 (EGFR dE746-A750) = settings: EGFR mutant cell line, range of GI50, read-out: GI50 PC-9
Experimental: as §6, §2, §3, §4, §5

HCC827 (EGFR dE746-A750) = settings: EGFR mutant cell line, range of GI50, read-out: GI50 HCC827
Experimental: as §6, §2, §3, §4, §5

N87 (HER2 Amp) = settings: HER2 positive cell line, range of GI50, read-out: GI50 N87
SK-BR-3 (Her2 amp) = settings: HER2 positive cell line, range of GI50, read-out: GI50 SK-BR-3
Experimental: Human lung adenocarcinoma cell line Calu-3 (ATCC) was cultured with 1×MEM complete medium (10% FBS, 1% double-antibiotics, 1% NEAA (Gibco), 2 mM glutamine and 1 mM of sodium pyruvate). Human breast cancer cell line SK-BR-3 was cultured with McCOY'S5A complete medium (10% FBS). Human colon cancer cell line SNU1040 (HER2 V777M positive) (ATCC) and human bronchoalveolar adenocarcinoma cell line NCI-H1781 (expressing HER2 exon 20 G776VC mutation) (ATCC) were cultured with 1×RPMI1640 complete medium (10% FBS), respectively.
as §2, §3, §4, §5

AU565 (Her2 amp) = settings: HER2 positive cell line, range of GI50, read-out: GI50 AU-565

SMILES	GI50 ([1]; Homo sapiens, NCI-H460) [µM]	GI50 ([2]; Homo sapiens, A-431) [µM]	GI50 (A549 (EGFR WT); Homo sapiens, A549) [µM]	GI50 ([3]; Homo sapiens, NCI-H1299) [µM]	GI50 ([4]; Homo sapiens, PC-9/ER) [µM]	GI50 (H1975 (EGFR L858R/T790M); Homo sapiens, NCI-H1975) [µM]	GI50 (PC-9 (EGFR dE746-A750); Homo sapiens) [µM]	GI50 (HCC827 (EGFR dE746-A750); Homo sapiens, HCC827) [µM]	GI50 (N87 (HER2 Amp); Homo sapiens) [µM]	GI50 (SK-BR-3 (Her2 amp); Homo sapiens, SK-BR-3) [µM]	GI50 (AU565 (Her2 amp); Homo sapiens, AU565) [µM]	further results
C=CC(=O)Nc1cc(Nc2nccc(Nc3cccc(Br)c3)n2)c(OC)cc1N(C)CCN(C)C [Compound 1, N-(5-(4-(3-bromophenylamino)-pyrimidin-2-ylamino)-2-(2-(dimethylamino-ethyl)-methyl-amino)-4-methoxyl-phenyl)-acrylamide]	> 1	0.1 to 1	> 1	> 1	0.01 to 0.1	0.01 to 0.1	0.01 to 0.1	< 0.01	0.01 to 0.1	0.01 to 0.1	0.01 to 0.1	–
C=CC(=O)Nc1cc(Nc2nccc(Nc3cccc(F)c3)n2)c(OC)cc1N(C)CCN(C)C [Compound 3, N-(5-(4-(3-fluoro-phenylamino)-pyrimidin-2-ylamino)-2-(2-(dimethylamino-ethyl)-methyl-amino)-4-methoxyl-phenyl)-acrylamide]	> 1	0.1 to 1	> 1	> 1	< 0.01	0.01 to 0.1	< 0.01	< 0.01	0.01 to 0.1	0.01 to 0.1	0.01 to 0.1	–
C#Cc1cccc(Nc2ccnc(Nc3cc(NC(=O)C=C)c(N(C)CCN(C)C)cc3OC)n2)c1 [Compound 8, N-(5-(4-(3-acetenyl-phenylamino)-pyrimidin-2-ylamino)-2-(2-(dimethylamino-ethyl)-methyl-amino)-4-methoxyl-phenyl)-acrylamide]	–	–	–	–	–	–	–	–	–	–	–	GI50 [1]: > 1 µM; GI50 [2]: 0.1 to 1 µM; GI50 (A549 (EGFR WT)): > 1 µM; GI50 [3]: > 1 µM; GI50 [4]: < 0.01 µM; GI50 (H1975 (EGFR L858R/T790M)): 0.01 to 0.1 µM; GI50 (PC-9 (EGFR dE746-A750)): 0.01 to 0.1 µM; GI50 (HCC827 (EGFR dE746-A750)): 0.01 to 0.1 µM; GI50 (N87 (HER2 Amp)): 0.01 to 0.1 µM; GI50 (SK-BR-3 (Her2 amp)): 0.01 to 0.1 µM; GI50 (AU565 (Her2 amp)): 0.1 to 1 µM
C=CC(=O)Nc1cc(Nc2nccc(Nc3ccc(F)c(Cl)c3)n2)c(OC)cc1N(C)CCN(C)C [Compound 13, N-(5-(4-(3-chloro-4-fluorophenyl-amino)-pyrimidin-2-ylamino)-2-(2-(dimethylamino-ethyl)-methyl-amino)-4-methoxyl-phenyl)-acrylamide]	> 1	0.1 to 1	> 1	> 1	0.01 to 0.1	0.01 to 0.1	0.01 to 0.1	0.01 to 0.1	0.01 to 0.1	0.01 to 0.1	0.01 to 0.1	–
C=CC(=O)Nc1cc(Nc2nccc(Nc3cccc(Cl)c3F)n2)c(OC)cc1N(C)CCN(C)C [Compound 14, N-(5-(4-(3-chloro-2-fluorophenyl-amino)-pyrimidin-2-ylamino)-2-(2-(dimethylamino-ethyl)-methyl-amino)-4-methoxyl-phenyl)-acrylamide]	> 1	> 1	> 1	> 1	0.1 to 1	0.1 to 1	0.01 to 0.1	0.01 to 0.1	0.1 to 1	0.1 to 1	0.1 to 1	–
C=CC(=O)Nc1cc(Nc2ncnc(Nc3cccc(Br)c3)n2)c(OC)cc1N1CCC(N2CCCCC2)CC1 [Compound 119, N-{2-[1,4′]-piperidin-1′-yl-5-[4-(3-bromo-phenylamino)-[1,3,5]triazin-2-amino]-4-methoxyl-phenyl}-acrylamide]	–	0.1 to 1	–	–	–	< 0.01	< 0.01	< 0.01	< 0.01	0.01 to 0.1	< 0.01	–
C=CC(=O)Nc1cc(Nc2ncnc(Nc3cccc(Br)c3)n2)c(OC)cc1N1CCCN(C)CC1 [Compound 130, N-[5-[4-(3-bromo-phenylamino)-[1,3,5]triazin-2-ylamino]-4-methoxyl-2-(4-methyl-[1,4]diazepane-1-yl)-phenyl]-acrylamide]	–	0.1 to 1	–	–	–	0.01 to 0.1	0.01 to 0.1	< 0.01	< 0.01	0.01 to 0.1	< 0.01	–
